What was measured:
Assay type in all cases: cell-based
platelets [1] = assay: Inhibition of clot retraction (thrombin-induced, platelets with fibrinogen)
Description: Platelets (2×10^8 platelets/ml) were incubated with either piceatannol at a final concentration of 40 μg/ml, calpeptin at a final concentration of 200 μg/ml, or vehicle DMSO for 30 minutes in the dark. To each sample, fibrinogen was added to a final concentration of 300 nM, 1 mM Ca^2+, and 2 mM Mg^2+, 10 minutes prior to the addition of 0.5 unit/ml of thrombin. The clots were incubated for 30 minutes at 37° C. and then transferred to ice before taking photographs. Tubes: 1, vehicle control treated sample without the addition of thrombin; 2, vehicle control treated sample; 3, piceatannol treated sample; 4, calpeptin treated sample.
To determine the effect of the syk kinase inhibitor piceatannol and the calpain inhibitor calpeptin, the following experiments were carried out. Platelets (2×10^8 platelets/ml) were incubated with either piceatannol at a final concentration of 40 μg/ml, calpeptin at a final concentration of 200 μg/ml, or vehicle DMSO for 30 minutes in the dark. To each sample, fibrinogen was added to a final concentration of 300 nM, 1 mM Ca^2+, and 2 mM Mg^2+, 10 minutes prior to the addition of 0.5 unit/ml of thrombin. The clots were incubated for 30 minutes at 37° C. and then transferred to ice before taking photographs. […]

platelets [2] = assay: Platelet aggregation (TRAP-stimulated, recorded together with NO production); details: 200 ug/ml
Description: (§1) FIGS. 2A and 2B show the effect of calpeptin on NO production. Platelets at 2×10^8/ml were pre-incubated with either calpeptin at final concentration 200 ug/ml or vehicle DMSO for 30 minutes in the dark. To a final volume of 0.5 ml, fibrinogen was added to a final concentration of 1 mg/ml, 1 mM Ca^2+, and 2 mM Mg^2+, and GPRP (gly-pro-arg-pro) to a final concentration of 20 μM. The tube was placed in the NO-501 monitor to measure NO production and the platelets are stirred with a magnetic stirrer. TRAP (Thrombin Receptor Agonist Peptide) at a final concentration of 20 μM was added to start the reaction. […] The readings were taken for 300 seconds (5 minutes).
as §1, with “Platelets” for “FIGS. 2A and 2B show the effect of calpeptin on NO production. Platelets”, “GPRP” for “GPRP (gly-pro-arg-pro)”

platelets [3] = assay: Nitric oxide production from platelets (NO-501 monitor, TRAP-stimulated); details: 200 ug/ml, 20 uM TRAP, read for 300 seconds
Description: as §1, with “[…])” for “GPRP (gly-pro-arg-pro)”, “minutes). FIGS. 3A and 3B show the effect of piceatannol on NO production. Platelets at 2×10^8/ml were pre-incubated with either piceatannol at final concentration 2.5 ug/ml or vehicle DMSO for 30 minutes in the dark. To a final volume of 0.5 ml, fibrinogen was added to a final concentration of 1 mg/ml, 1 mM Ca^2+, and 2 mM Mg^2+, and GPRP to a final concentration of 20 μM. The tube was placed in the NO-501 monitor to measure NO production and the platelets are stirred with a magnetic stirrer. TRAP (Thrombin Receptor Agonist Peptide) at a final concentration of 20 μM was added to start the reaction. […] The readings were taken for 300 seconds (5 minutes). […]” for “minutes).”

platelets [4] = assay: Clot lysis in the presence of platelets (t-PA/Glu-plasminogen, fluorescent fibrinogen release); details: for Clot Lysis in the Presence of Platelets (value relative to control designated as 1): 90 min 37 C, t-PA 2 U/ml, Glu-plasminogen 20 ug/ml; for fibrinolysis of clots, of that of the control: clots made and lysed in the presence of platelets
Description: To assess the effect of piceatannol and calpeptin on the fibrinolytic effect of t-PA and plasminogen in the presence of platelets, we designed a two step procedure by modifying the fibrinolytic assay as described by Fay et al. (Blood, 83, 351-356, 1994). First, we developed a retracted clot in the presence of fluorescence tagged fibrinogen in tubes containing platelets by the addition of thrombin. The residual fluid was taken out and platelets were added to each tube either treated with piceatannol, calpeptin and the vehicle control DMSO respectively. Glu-plasminogen, t-PA were added and the reaction was started by the addition of thrombin. After 90 minutes, the fluid from each tube was taken out and put in separate microfuge tubes followed by centrifugation. The detection of fluorescence in the supernatant was a measure of clot lysis. To form the clot, Oregon green 488 conjugated fibrinogen (fluorescent, from Molecular Probe) at 300 nM final concentration, 1 mM Ca^2+, 2 mM Mg^2+, was added to platelets at 2×10^8/ml concentration in 0.5 ml. The clot retraction was started with the addition of 0.5 unit/ml thrombin. The tubes were kept at 37° C. in dark for 1 hour until the clot retraction was complete. The residual fluid was taken out from each tube. To initiate clot lysis, platelets at 2×10^8/ml concentration were treated with either 40 ug/ml piceatannol, 200 ug/ml calpeptin or vehicle DMSO. In 0.25 ml of each, Glu-plasminogen was added to a final concentration of 20 μg/ml, and t-PA was added to a final concentration of 2 U/ml. The reaction was started with the addition of thrombin at final concentration of 0.5 U/ml. The tubes were kept at 37° C. for 90 minutes. The fluid from each tube was taken in separate microfuge tubes and centrifuged at cold at 14000 rpm for 10 minutes. The supernatants were isolated. Each supernatant was diluted to 5 times and fluorescence in each sample was measured at excitation: 495 nm and emission: 525 nm.

## CC(C)(C)n1nc(-c2ccc(Cl)cc2)c2c(N)ncnc21 [PP2]
Platelets [1]; 10 uM (data not shown)
  effect on clot retraction: did not have any effect on clot retraction

## CCCC[C@@H](C=O)NC(=O)[C@H](CC(C)C)NC(=O)OCc1ccccc1 [calpeptin]
Platelets [2]
  effect on platelet aggregation: inhibits both platelet aggregation and clot retraction
Platelets [1]; 200 ug/ml, 30 min pre-incubation, 0.5 unit/ml thrombin, 30 min 37 C
  effect on clot retraction: inhibited platelet mediated clot retraction
Platelets [3]
  NO production: increased and sustained NO production
Platelets [4]; 200 ug/ml
  Clot Lysis in the Presence of Platelets (value relative to control designated as 1): 6.2
  fibrinolysis of clots, of that of the control: about 600%

## Oc1cc(O)cc(/C=C/c2ccc(O)c(O)c2)c1 [piceatannol]
Platelets [4]; 40 ug/ml
  Clot Lysis in the Presence of Platelets (value relative to control designated as 1): 6.2
  fibrinolysis of clots, of that of the control: about 600%

From patent publication US8586292B2, “Methods for identifying compounds for treatment of thrombotic condition” (priority 2002, dated 2013)
